Assay results: ChEMBL document CHEMBL1201862, “PubChem BioAssay data set” (2004)
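Protocol summary: plate cells (96-well), add compound at 5 concentrations, incubate 48 h, interpolate endpoints linearly. Abbreviation: GI50, concentration required for 50% inhibition of growth.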 Active and inactive are the calls of the source. No stated cut-off is given here; in the data, active = GI50 up to about 1.1 µM and inactive = higher. Non-standard residues stand in square brackets, D forms with d. Residues, ends and D or L forms follow the SMILES beside them. ξ: configuration not given here. *: point of attachment. NMeF = CN[C@@H](Cc1ccccc1)C(=O)O; NMeN = CN[C@@H](CC(N)=O)C(=O)O; NMeV = CN[C@H](C(=O)O)C(C)C; ξNMeV = CNC(C(=O)O)C(C)C; Boc = CC(C)(C)OC(=O)*; ξNMeA = CNC(C)C(=O)O; ξV = CC(C)C(N)C(=O)O

Tests used:
Assay in all cases: NCI anticancer screen, dose series, 48 h
SF-268 = tested on: SF-268
MDA-MB-231 = tested on: MDA-MB-231
HT-29 = tested on: HT-29
DU-145 = tested on: DU-145
SNB-75 = tested on: SNB-75
PC-3 = tested on: PC-3
OVCAR-4 = tested on: OVCAR-4
SF-295 = tested on: SF-295
SF-539 = tested on: SF-539
HL-60 = tested on: HL-60
RPMI-8226 = tested on: RPMI-8226
EKVX = tested on: EKVX
Malme-3M = tested on: Malme-3M
786-0 = tested on: 786-0
MOLT-4 = tested on: MOLT-4
U-251 = tested on: U-251
TK-10 = tested on: TK-10
A549 = tested on: A549
NCI-H522 = tested on: NCI-H522
SNB-19 = tested on: SNB-19

Measured: GI50

COC(=O)C(C)N(C)C(=O)[C@H](CC(N)=O)N(C)C(=O)[C@@H]1CCCN1C(=O)[C@H](C(C)C)N(C)C(=O)C(C(C)C)N(C)C(=O)[C@H](Cc1ccccc1)N(C)C(=O)C(NC(=O)OC(C)(C)C)C(C)C (stereo not given in full) (Boc-[ξV][NMeF][ξNMeV][NMeV]P[NMeN][ξNMeA]-OMe)
inactive: SF-268 13.9 µM | MDA-MB-231 16.3 µM | HT-29 18.3 µM | DU-145 28.8 µM | SNB-75 6.17 µM | PC-3 16.1 µM | OVCAR-4 > 50 µM | SF-295 12 µM | SF-539 28 µM | HL-60 15.6 µM | RPMI-8226 12.4 µM | EKVX > 50 µM | Malme-3M 17.8 µM | 786-0 17.6 µM | MOLT-4 8.95 µM | U-251 11.2 µM | TK-10 21.2 µM | A549 > 50 µM | NCI-H522 17.5 µM | SNB-19 19.7 µM
